Assay [1] has as its system BKII (recombinant butyrate kinase derived from Acetoanaerobium sticklandii). As to the kind of experiment: Substrate specificity of butyrate kinase BKII. It counts as biochemical. The conditions noted are these: 100 mM sodium salt of fatty acid in second reagent, pH 7.5. The procedure: (§1) Various fatty acids shown in Table 1 were used as a substrate. The measurement was performed using a 7180 type Hitachi automatic analyzer (Hitachi High-Tech Corporation). […] PHARMA CORPORATION) • 5 U/mL ADP-HK II (ADP dependent hexokinase: […] PHARMA CORPORATION) […] In the composition of the second reagent, “sodium salts of various fatty acids” means any one kind of sodium caprylate, sodium caproate, sodium valerate, sodium isovalerate, sodium butyrate, sodium isobutyrate, sodium propionate, sodium acetate, sodium lactate, and sodium succinate. Isobutyric acid, valeric acid, isovaleric acid, caproic acid, and octanoic acid, which are commercially available fatty acids and are not sold as sodium salts, were adjusted to pH 7.5 with sodium hydroxide. […] [Measurement Parameters of Automatic Analyzer] • Analysis method: […]

In assay [2] the test system is BKIII (recombinant butyrate kinase derived from Thermosediminibacter oceani). Kind of assay: Substrate specificity of butyrate kinase BKIII. The class given is biochemical. As to conditions: 100 mM sodium salt of fatty acid in second reagent, pH 7.5. The procedure: as §1
Another assay concerns the target T1, acetate kinase (AK) (Escherichia coli, UniProt P0A6A3).
T1 construct: purchased Sigma-Aldrich Co. LLC
As to the kind of experiment: Comparative Example 1: measurement using acetate kinase, reaction recovery rate. The class given is biochemical, E. coli. As to conditions: 5 mM substrate. The procedure:
(§2) It was examined whether butyric acid could be measured by using acetate kinase (AK) or propionic acid kinase (PK) instead of butyrate kinase. For comparison, measurement using BKIII was also performed.
(§3) Neutralized 100 mM acetic acid, butyric acid, and isobutyric acid were mixed with physiological saline to prepare a 5 mM acetic acid aqueous solution, a 5 mM butyric acid aqueous solution, and a 5 mM isobutyric acid aqueous solution, respectively.
(§4) The composition of the first reagent was the same as that of the first reagent used for examining the substrate specificity of Reference Example 7.
(§5) AK (Sigma-Aldrich Co. LLC., derived from E. coli), PK (MyBioSource, recombinant protein) and BKIII were added to 100 mM Tris-HCl (pH 7.5) (Sigma-Aldrich Co. LLC.), respectively, to prepare an enzyme solution containing each enzyme at a concentration of 1.25 to 40 U/mL.
(§6) The measurement was performed using a 7180 type Hitachi automatic analyzer (Hitachi High-Tech Corporation). The measurement parameters of the automatic analyzer were the same as in Example 2.
(§7) In the same manner as in Example 2, butyric acid and isobutyric acid in the sample were measured by the automatic analyzer. The reaction recovery rate (%) was calculated by dividing the measured value by the theoretical absorbance value. The theoretical absorbance is the absorbance when all the substrate (butyric acid or isobutyric acid) in the sample is converted to NADPH, and is calculated by the following formula. […] (Theoretical absorbance)= (substrate concentration in sample)×[(sample volume)/(sample volume+ first reagent amount+second reagent amount)]×(NADPH millimole molecular extinction coefficient at 340 nm)= 5×[3.5/(3.5+140+35)]×6.3= 0.617

Assay [3] has as its system propionic acid kinase (PK). As to the kind of experiment: Comparative Example 1: measurement using propionic acid kinase, reaction recovery rate. It counts as biochemical. The conditions noted are these: 5 mM substrate. Here is the method:
as §2, §3, §4, §5, §6, §7

The test system of the next assay is BKIII. Kind of assay: Comparative Example 1: measurement using BKIII, reaction recovery rate. It counts as biochemical, Thermosediminibacter oceani. As to conditions: 5 mM substrate. The procedure:
as §2, §3, §4, §5, §6, §7

The subject of assay [4] is acetate-CoA transferase (EC 2.8.3.8). Kind of assay: Comparative Example 2: measurement using acetate-CoA transferase, reaction recovery rate. As to conditions: 30 μg/mL acetate-CoA transferase in second reagent; 5 mM substrate. The class given is biochemical, E. coli. The source says: Acetate-CoA transferase (EC 2.8.3.8) has been reported to catalyze the reaction represented by the following formula (9) (EC 2.8.3.8 in the Enzyme nomenclature database on the ExPASy-SIB Bioinformatics Resource Portal).). It was examined whether butyric acid could be measured by the reaction of formula (10), which is the reverse reaction of formula (9), using acetate-CoA transferase instead of butyrate kinase The acetic acid produced by the formula (10) by acetate-CoA transferase was confirmed by the reaction with AK of Comparative Example 1. The measurement was performed using a 7180 type Hitachi automatic analyzer (Hitachi High-Tech Corporation). [Chemical formula 7] Acyl-CoA+acetic acid ? fatty acid+acetyl-CoA (9) Butyric acid+acetyl-CoA→butyrate-CoA+acetic acid (10)
The 5 mM butyric acid and 5 mM isobutyric acid aqueous solution used in Comparative Example 1 were used. […]
In the same manner as in Example 2, butyric acid and isobutyric acid in the sample were measured by the automatic analyzer. The reaction recovery rate (%) was calculated by dividing the measured value by the theoretical absorbance value of Comparative Example 1.

Assay [5] deals with butyrate-acetoacetate-CoA transferase (EC 2.8.3.9). As to the kind of experiment: Comparative Example 3: measurement using butyrate-acetoacetate-CoA transferase, reaction recovery rate. It counts as biochemical, E. coli. The conditions noted are these: 60 μg/mL butyrate-acetoacetate-CoA transferase in second reagent; 5 mM substrate. The procedure:
It was examined whether acetic acid and butyric acid could be measured by the reaction of formula (12), which is the reverse reaction of the formula (11), using butyrate-[…] transferase instead of butyrate kinase. […] The measurement was performed using a 7180 type Hitachi automatic analyzer (Hitachi High-Tech Corporation). […] LLC.) • 0.35 mM Acetoacetyl-CoA (Sigma-Aldrich Co. LLC.) • 2 mM MgCl2 (FUJIFILM Wako Pure Chemical Corporation) • 0.25 mM β-NADH (Oriental Yeast Co., Ltd.) • 5 U/mL 3-hydroxybutyrate dehydrogenase (FUJIFILM Wako Pure Chemical Corporation) […] LLC.) The measurement was performed using a 7180 type Hitachi automatic analyzer (Hitachi High-Tech Corporation). The measurement parameters of the automatic analyzer were the same as in Example 2.

Setting [6] is: AK activity value in reaction mixed solution 0.3 U/mL.
Where [7] appears, read: AK activity value in reaction mixed solution 0.5 U/mL.
Where [8] appears, read: AK activity value in reaction mixed solution 1.0 U/mL.
Setting [9] is: AK activity value in reaction mixed solution 2.0 U/mL.
Setting [10] is: AK activity value in reaction mixed solution 4.0 U/mL.
[11] abbreviates: AK activity value in reaction mixed solution 8.0 U/mL.
[12] abbreviates: PK activity value in reaction mixed solution 0.3 U/mL.
[13] abbreviates: PK activity value in reaction mixed solution 0.5 U/mL.
[14] abbreviates: PK activity value in reaction mixed solution 1.0 U/mL.
The mark [15] stands for this setting: PK activity value in reaction mixed solution 2.0 U/mL.
[16] abbreviates: PK activity value in reaction mixed solution 4.0 U/mL.
Setting [17] is: PK activity value in reaction mixed solution 8.0 U/mL.
The mark [18] stands for this setting: BKIII activity value in reaction mixed solution 0.3 U/mL.
[19] abbreviates: BKIII activity value in reaction mixed solution 0.5 U/mL.
[20] abbreviates: BKIII activity value in reaction mixed solution 1.0 U/mL.
Where [21] appears, read: BKIII activity value in reaction mixed solution 2.0 U/mL.
Setting [22] is: BKIII activity value in reaction mixed solution 4.0 U/mL.
Where [23] appears, read: BKIII activity value in reaction mixed solution 8.0 U/mL.

T1 sequence (P0A6A3 whole entry): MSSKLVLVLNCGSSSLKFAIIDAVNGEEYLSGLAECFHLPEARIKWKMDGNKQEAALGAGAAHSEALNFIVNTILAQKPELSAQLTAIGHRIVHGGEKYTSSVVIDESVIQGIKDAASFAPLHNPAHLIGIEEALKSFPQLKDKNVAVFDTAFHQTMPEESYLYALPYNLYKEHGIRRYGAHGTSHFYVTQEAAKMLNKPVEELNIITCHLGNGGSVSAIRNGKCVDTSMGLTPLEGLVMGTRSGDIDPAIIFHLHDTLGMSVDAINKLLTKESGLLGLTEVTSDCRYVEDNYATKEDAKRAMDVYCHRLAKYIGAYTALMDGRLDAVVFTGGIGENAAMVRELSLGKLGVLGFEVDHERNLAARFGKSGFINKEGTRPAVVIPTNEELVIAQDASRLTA

Regarding `CCCC(=O)O` [Butyric acid], the “substrate specificity, relative value when the activity value with respect to butyric acid is 100” value (from here on “substrate specificity, relative value”) in assay [1] and in assay [2] was 100% throughout. Also, the reaction recovery rate at acetate kinase (AK) (setting [6]), on acetate kinase (AK) (setting [7]), at acetate kinase (AK) (setting [8]), on acetate kinase (AK) (setting [9]), at acetate kinase (AK) (setting [10]) and at acetate kinase (AK) (setting [11]) was 0% in each case. The reaction recovery rate in assay [3] (setting [12]) is 0%; in assay [3] (setting [13]), 0%; in assay [3] (setting [14]), 0%; in assay [3] (setting [15]) it was 2%; in assay [3] (setting [16]), 4%; in assay [3] (setting [17]) it was 8%. In addition, the reaction recovery rate with BKIII (setting [18]) was 36%; with BKIII (setting [19]), 53%; in the assay with BKIII (setting [20]), 70%; with BKIII (setting [21]), 84%; in the assay on BKIII (setting [22]) it was 93%; in the assay on BKIII (setting [23]) it was 98%. In addition, the “Reaction recovery rate (%)” value is 3% in assay [4] and 2% in assay [5].

As to `CC(=O)O` [Acetic acid], the “substrate specificity, relative value” value in assay [1] and in assay [2] was 1% throughout. The reaction recovery rate at acetate kinase (AK) (setting [6]) is 16%; at acetate kinase (AK) (setting [7]), 28%; at acetate kinase (AK) (setting [8]), 44%; on acetate kinase (AK) (setting [9]) it was 62%; on acetate kinase (AK) (setting [10]), 78%; on acetate kinase (AK) (setting [11]), 88%. In addition, the reaction recovery rate in assay [3] (setting [12]) was 0%; in assay [3] (setting [13]) it was 2%; in assay [3] (setting [14]), 3%; in assay [3] (setting [15]), 9%; in assay [3] (setting [16]), 21%; in assay [3] (setting [17]), 39%. In addition, the reaction recovery rate in the assay with BKIII (setting [18]) is on record as 0%; in the assay on BKIII (setting [19]), 0%; in the assay on BKIII (setting [20]), 0%; in the assay on BKIII (setting [21]), 0%; with BKIII (setting [22]) it was 1%; in the assay with BKIII (setting [23]), 2%. The “Reaction recovery rate (%)” value in assay [5] was 1%.

Regarding `CC(C)C(=O)O` [Isobutyric acid], the figures for the “substrate specificity, relative value” value in assay [1] and in assay [2] were 84% and 80%, respectively. Further, the reaction recovery rate at acetate kinase (AK) (setting [6]), at acetate kinase (AK) (setting [7]), on acetate kinase (AK) (setting [8]), on acetate kinase (AK) (setting [9]), on acetate kinase (AK) (setting [10]) and on acetate kinase (AK) (setting [11]) was 0% each time. The reaction recovery rate in assay [3] (setting [12]), in assay [3] (setting [13]), in assay [3] (setting [14]), in assay [3] (setting [15]), in assay [3] (setting [16]) and in assay [3] (setting [17]) was 0% each time. The reaction recovery rate with BKIII (setting [18]) is 40%; with BKIII (setting [19]) it was 55%; in the assay on BKIII (setting [20]) it was 70%; in the assay with BKIII (setting [21]), 83%; with BKIII (setting [22]) it was 91%; with BKIII (setting [23]), 96%. For the same molecule, the “Reaction recovery rate (%)” value is listed as 4% in assay [4] and 2% in assay [5].
